The target in this experiment is T1, Asian corn borer prophenoloxidase-2 (OfPPO2; PO2) (Ostrinia furnacalis, UniProt Q2I355).
T1 construct: coding region of mature PPO2 in pET28a, E. coli BL21(DE3), purified
T1 sequence (Q2I355 1-692): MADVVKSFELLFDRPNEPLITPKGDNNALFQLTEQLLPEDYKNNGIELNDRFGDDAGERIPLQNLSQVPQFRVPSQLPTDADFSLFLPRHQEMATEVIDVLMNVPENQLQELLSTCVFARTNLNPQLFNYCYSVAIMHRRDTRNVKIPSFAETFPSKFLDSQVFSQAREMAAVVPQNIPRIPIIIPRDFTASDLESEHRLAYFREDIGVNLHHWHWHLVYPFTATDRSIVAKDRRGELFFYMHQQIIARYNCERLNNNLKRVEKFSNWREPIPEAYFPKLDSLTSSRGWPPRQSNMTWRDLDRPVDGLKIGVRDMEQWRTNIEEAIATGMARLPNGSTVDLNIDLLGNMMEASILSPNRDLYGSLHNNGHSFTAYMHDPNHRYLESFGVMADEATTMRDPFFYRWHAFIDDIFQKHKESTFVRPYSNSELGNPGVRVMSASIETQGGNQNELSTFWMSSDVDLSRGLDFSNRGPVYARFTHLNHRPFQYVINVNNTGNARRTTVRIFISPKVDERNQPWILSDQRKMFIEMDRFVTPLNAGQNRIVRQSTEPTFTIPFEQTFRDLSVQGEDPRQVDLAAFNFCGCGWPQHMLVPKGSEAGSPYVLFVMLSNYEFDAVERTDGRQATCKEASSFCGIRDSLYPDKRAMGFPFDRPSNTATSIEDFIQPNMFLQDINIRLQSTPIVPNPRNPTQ
Description: phenoloxidase assay, A490. It is filed as biochemical. Conditions: PPO2 activated by Factor Xa-activated SP105Xa, 37 °C 30 min.

The source of these data is publication PMC5372168, “Serine protease SP105 activates prophenoloxidase in Asian corn borer melanization, and is regulated by serpin-3” (Scientific Reports, 2017).

With `NCCc1ccc(O)c(O)c1` [dopamine], the “phenoloxidase assay, A490” value is listed as “PO activity in the reaction mixtures was measured using dopamine as substrate”.
